Laboratory results: patent EP3800188A1, “SUBSTITUTED PYRAZOLOPYRIMIDINES AS IRAK4 INHIBITORS” (Bayer AG, priority 2019, dated 2021)

molecular target: T1, human IRAK4 (Homo sapiens, UniProt Q9NWZ3); test: Human IRAK4 kinase activity inhibition assay (IRAK4 TR-FRET assay); assay type: biochemical; conditions: 1 mM ATP, GST-human IRAK4, average or median values
T1 construct: GST (N); made in house; host or cells: baculovirus-infected Hi5 (BTI-TN-5B1-4) insect cells
T1 sequence (Q9NWZ3 1-460): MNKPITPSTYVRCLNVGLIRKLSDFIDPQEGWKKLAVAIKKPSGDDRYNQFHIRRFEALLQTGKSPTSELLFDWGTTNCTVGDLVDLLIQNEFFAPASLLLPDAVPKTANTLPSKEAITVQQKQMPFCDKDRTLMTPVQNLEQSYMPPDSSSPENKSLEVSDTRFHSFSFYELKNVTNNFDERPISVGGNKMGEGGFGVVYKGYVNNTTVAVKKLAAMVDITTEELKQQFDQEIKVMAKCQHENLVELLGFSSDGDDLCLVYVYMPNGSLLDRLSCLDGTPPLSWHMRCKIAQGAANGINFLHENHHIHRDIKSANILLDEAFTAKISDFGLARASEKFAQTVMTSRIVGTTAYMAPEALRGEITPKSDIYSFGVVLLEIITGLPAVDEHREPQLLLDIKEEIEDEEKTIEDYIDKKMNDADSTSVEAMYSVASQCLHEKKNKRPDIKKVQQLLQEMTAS
Experimental: The IRAK4-inhibitory activity of the inventive substances was measured in the IRAK4 TR-FRET assay (TR-FRET = Time Resolved Fluorescence Resonance Energy Transfer) described hereinafter.
Recombinant fusion protein from N-terminal GST (glutathione S-transferase) and human IRAK4, expressed in baculovirus-infected insect cells (Hi5, BTI-TN-5B1-4, cell line purchased from Invitrogen, catalogue No. B855-02) and purified via affinity chromatography, was used as enzyme. The substrate used for the kinase reaction was the biotinylated peptide biotin-Ahx-[…] (C-terminus in amide form) which can be purchased, for example, from Biosyntan GmbH (Berlin-Buch). For the assay, 11 different concentrations in the range from 20 µM to 0.073 nM were prepared from a 2 mM DMSO solution of the test substance. 50 nl of the respective 100fold concentrated test compound solutions in DMSO were pipetted into a black low-volume 384-well microtitre plate or a black 1536-well microtiter plate (both Greiner Bio-One, Frickenhausen, Germany), 2 µl of a solution of IRAK4 in assay buffer [50 mM HEPES pH 7.5, 5mM MgCl2, 1.0 mM dithiothreitol, 30 µM activated sodium orthovanadate, 0.1% (w/v) of bovine gamma-globulin (BGG) 0.04% (v/v) nonidet-P40 (Sigma)] were added and the mixture was incubated for 15 min to allow prebinding of the substances to the enzyme prior to the kinase reaction. […] The concentration of the IRAK4 was adjusted to the respective activity of the enzyme and set such that the assay was carried out in the linear range. Typical concentrations were in the order of about 0.2 nM. The reaction was stopped by addition of 5 µl of a solution of TR-FRET detection reagents [0.1 µM streptavidin-XL665 (Cisbio Bioassays; France, catalogue No. 610SAXLG)] and 1.5 nM anti-phosphoserine antibody [Merck Millipore, "STK Antibody", catalogue No. 35-002] and 0.6 nM LANCE EU-W1024-labelled anti-mouse-IgG antibody (Perkin-Elmer, product No. AD0077; alternatively, it is possible to use a terbium cryptate-labelled anti-mouse-IgG antibody from Cisbio Bioassays) in aqueous EDTA solution (100 mM EDTA, 0.4 % [w/v] bovine serum albumin [BSA] in 25 mM HEPES pH 7.5). The resulting mixture was incubated at 22°C for 1 h to allow formation of a complex of the biotinylated phosphorylated substrate and the detection reagents. The amount of the phosphorylated substrate was then evaluated by measuring the resonance energy transfer from europium chelate-labelled anti-mouse-IgG antibody to streptavidin-XL665. To this end, the fluorescence emissions at 620 nm and 665 nm were measured after excitation at 350 nm in a TR-FRET measuring instrument, for example a Rubystar (BMG Labtechnologies, Offenburg, Germany) or a Viewlux (Perkin-Elmer). The ratio of the emissions at 665 nm and 622 nm was taken as a measure of the amount of phosphorylated substrate. The data were normalized (enzyme reaction without test substance = 0% inhibition; all other assay components but no enzyme = 100% inhibition).

Point of comparison: `CC(C)(O)C1CCN(c2nc(N[C@H]3C[C@@](C)(C(=O)O)C3)nc3c2cnn3-c2cccc(C(F)(F)F)c2)CC1` [Example I-66, cis-3-({4-[4-(2-hydroxypropan-2-yl)piperidin-1-yl]-1-[3-(trifluoromethyl)phenyl]-1H-pyrazolo[3,4-d]pyrimidin-6-yl}amino)-1-methylcyclobutanecarboxylic acid], IC50 0.138 µM. Against it:
- O=S1(=O)CC[C@H](Nc2nc(N3CCC(N4CCOCC4)CC3)c3cnn(-c4cccc(C(F)(F)F)c4)c3n2)C1 [Example I-33, N-[(3S)-1,1-dioxidotetrahydrothiophen-3-yl]-4-[4-(morpholin-4-yl)piperidin-1-yl]-1-[3-(trifluoromethyl)phenyl]-1H-pyrazolo[3,4-d]pyrimidin-6-amine] — 1.6-fold lower, 0.0842 µM
- O=S1(=O)CC[C@H](Nc2nc(N3CC(N4CCOCC4)C3)c3cnn(-c4cccc(C(F)(F)F)c4)c3n2)C1 [Example I-34, N-[(3S)-1,1-dioxidotetrahydrothiophen-3-yl]-4-[3-(morpholin-4-yl)azetidin-1-yl]-1-[3-(trifluoromethyl)phenyl]-1H-pyrazolo[3,4-d]pyrimidin-6-amine] — 1.6-fold lower, 0.0851 µM
- CS(=O)(=O)CC1CN(c2nc(N[C@@H]3CNC(=O)C3)nc3c2cnn3-c2cccc(C(F)(F)F)c2)C1 [Example I-35, (4S)-4-[(4-{3-[(methylsulfonyl)methyl]azetidin-1-yl}-1-[3-(trifluoromethyl)phenyl]-1H-pyrazolo[3,4-d]pyrimidin-6-yl)amino]pyrrolidin-2-one] — 8.4-fold lower, 0.0165 µM
- CN1CC[C@H](Nc2nc(N3CC(CS(C)(=O)=O)C3)c3cnn(-c4cccc(C(F)(F)F)c4)c3n2)C1 [Example I-36, N-[(3S)-1-methylpyrrolidin-3-yl]-4-{3-[(methylsulfonyl)methyl]azetidin-1-yl}-1-[3-(trifluoromethyl)phenyl]-1H-pyrazolo[3,4-d]pyrimidin-6-amine] — 3.1-fold lower, 0.045 µM
- CN(C)C1(C)CN(c2nc(N[C@@H]3CNC(=O)C3)nc3c2cnn3-c2cccc(C(F)(F)F)c2)C1 [Example I-38, (4S)-4-({4-[3-(dimethylamino)-3-methylazetidin-1-yl]-1-[3-(trifluoromethyl)phenyl]-1H-pyrazolo[3,4-d]pyrimidin-6-yl}amino)pyrrolidin-2-one] — 8.5-fold lower, 0.0162 µM
- CN(C)C1(C)CN(c2nc(NC3CCS(=O)(=O)CC3)nc3c2cnn3-c2cccc(C(F)(F)F)c2)C1 [Example I-39, 4-[3-(dimethylamino)-3-methylazetidin-1-yl]-N-(1,1-dioxidotetrahydro-2H-thiopyran-4-yl)-1-[3-(trifluoromethyl)phenyl]-1H-pyrazolo[3,4-d]pyrimidin-6-amine] — 5.6-fold lower, 0.0245 µM
- CC1(O)CN(c2nc(N[C@@H]3CCN(S(C)(=O)=O)C3)nc3c2cnn3-c2cccc(C(F)(F)F)c2)C1 [Example I-41-1, 3-methyl-1-(6-{[(3R)-1-(methylsulfonyl)pyrrolidin-3-yl]amino}-1-[3-(trifluoromethyl)-phenyl]-1H-pyrazolo[3,4-d]pyrimidin-4-yl)azetidin-3-ol] — 1.8-fold higher, 0.25 µM
- CC1(O)CN(c2nc(N[C@H]3CCN(S(C)(=O)=O)C3)nc3c2cnn3-c2cccc(C(F)(F)F)c2)C1 [Example I-41-2, 3-methyl-1-(6-{[(3S)-1-(methylsulfonyl)pyrrolidin-3-yl]amino}-1-[3-(trifluoromethyl)-phenyl]-1H-pyrazolo[3,4-d]pyrimidin-4-yl)azetidin-3-ol] — 2.9-fold higher, 0.4 µM
- CN(C)C1CN(c2nc(NC3CCS(=O)(=O)CC3)nc3c2cnn3-c2cccc(C(F)(F)F)c2)C1 [Example I-42, 4-[3-(dimethylamino)azetidin-1-yl]-N-(1,1-dioxidotetrahydro-2H-thiopyran-4-yl)-1-[3-(trifluoromethyl)phenyl]-1H-pyrazolo[3,4-d]pyrimidin-6-amine] — 4.3-fold lower, 0.032 µM
- CC1(Nc2nc(N3CC(N4CCOCC4)C3)c3cnn(-c4cccc(C(F)(F)F)c4)c3n2)CCS(=O)(=O)C1 (centres unmarked) [Example I-43, N-(3-methyl-1,1-dioxidotetrahydrothiophen-3-yl)-4-[3-(morpholin-4-yl)azetidin-1-yl]-1-[3-(trifluoromethyl)phenyl]-1H-pyrazolo[3,4-d]pyrimidin-6-amine] — 2-fold higher, 0.28 µM
- CN(C)C1CN(c2nc(N[C@@H]3CNC(=O)C3)nc3c2cnn3-c2cccc(C(F)(F)F)c2)C1 [Example I-44, (4S)-4-({4-[3-(dimethylamino)azetidin-1-yl]-1-[3-(trifluoromethyl)phenyl]-1H-pyrazolo-[3,4-d]pyrimidin-6-yl}amino)pyrrolidin-2-one] — 8.8-fold lower, 0.0157 µM
- O=C(O)CC1CN(c2nc(N[C@@H]3CNC(=O)C3)nc3c2cnn3-c2cccc(C(F)(F)F)c2)C1 [Example I-50, [1-(6-{[(3S)-5-oxopyrrolidin-3-yl]amino}-1-[3-(trifluoromethyl)phenyl]-1H-pyrazolo[3,4-d]pyrimidin-4-yl)azetidin-3-yl]acetic acid] — 2.9-fold lower, 0.0484 µM
- O=S1(=O)CCN(C2CN(c3nc(NC4CC4)nc4c3cnn4-c3cccc(C(F)(F)F)c3)C2)CC1 [Example I-53, N-cyclopropyl-4-[3-(1,1-dioxidothiomorpholin-4-yl)azetidin-1-yl]-1-[3-(trifluoromethyl)-phenyl]-1H-pyrazolo[3,4-d]pyrimidin-6-amine] — within 1.5-fold, 0.0998 µM
- CN(C)C1CN(c2nc(NC3CC(F)(F)C3)nc3c2cnn3-c2cccc(C(F)(F)F)c2)C1 [Example I-54, N-(3,3-difluorocyclobutyl)-4-[3-(dimethylamino)azetidin-1-yl]-1-[3-(trifluoromethyl)-phenyl]-1H-pyrazolo[3,4-d]pyrimidin-6-amine] — 2.2-fold higher, 0.297 µM
- CS(=O)(=O)[C@H]1C[C@@H](Nc2nc(N3CC(N4CCOCC4)C3)c3cnn(-c4cccc(C(F)(F)F)c4)c3n2)C1 [Example I-55, N-[cis-3-(methylsulfonyl)cyclobutyl]-4-[3-(morpholin-4-yl)azetidin-1-yl]-1-[3-(trifluoromethyl)phenyl]-1H-pyrazolo[3,4-d]pyrimidin-6-amine] — 8.8-fold lower, 0.0156 µM
- CC(C)(O)C1CCN(c2nc(N[C@H]3C[C@@](O)(C(F)(F)F)C3)nc3c2cnn3-c2cccc(C(F)(F)F)c2)CC1 [Example I-63, trans-3-({4-[4-(2-hydroxypropan-2-yl)piperidin-1-yl]-1-[3-(trifluoromethyl)phenyl]-1H-pyrazolo[3,4-d]pyrimidin-6-yl}amino)-1-(trifluoromethyl)cyclobutanol] — 4.5-fold lower, 0.0306 µM
- CC(C)(O)C1CCN(c2nc(N[C@@H]3CN4CCC3CC4)nc3c2cnn3-c2cccc(C(F)(F)F)c2)CC1 [Example I-64-2] — 2.3-fold lower, 0.0589 µM
- O[C@H]1COC[C@@H]1Nc1nc(N2CC(N3CCOCC3)C2)c2cnn(-c3cccc(C(F)(F)F)c3)c2n1 [Example I-69, (3R,4S)-4-({4-[3-(morpholin-4-yl)azetidin-1-yl]-1-[3-(trifluoromethyl)phenyl]-1H-pyrazolo[3,4-d]pyrimidin-6-yl}amino)tetrahydrofuran-3-ol] — 5.3-fold lower, 0.0262 µM
- CS(=O)(=O)C1CN(c2nc(N[C@H]3C[C@](C)(N)C3)nc3c2cnn3-c2cccc(C(F)(F)F)c2)C1 [Example I-71, trans-1-methyl-N^3-{4-[3-(methylsulfonyl)azetidin-1-yl]-1-[3-(trifluoromethyl)phenyl]-1H-pyrazolo[3,4-d]pyrimidin-6-yl}cyclobutane-1,3-diamine] — 9-fold lower, 0.0153 µM
